The record followed here is PMC11642016 (International Journal of Molecular Sciences, 2024).

Several values for one entry are separate records, joined by “and”; a condition that tells them apart may be missing. Identical values can stand only once.

The series has as its system HEK293T CLPP^−/− cells. The series is described as follows: CellTiter-Glo cell viability assay, HEK293T CLPP−/− (ClpP dependence).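 On all read-outs here: CellTiter-Glo luminescent signal read on a microplate reader once HEK293T CLPP−/− cells had been exposed to compounds for 72 h.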 The following applies: 72 h; for HEK293T CLPP-/- Cell viability (% of controll): individual replicates. For orientation: In ATP-based viability assays light output follows the ATP content of the culture.

Method: Primary fibroblast cultures were prepared from human skin biopsies and maintained in DMEM supplemented with 10% FBS, 1% penicillin-streptomycin, and 1% MEM Non-Essential Amino Acids Solution (Thermo Fisher Scientific). […] All cell lines were cultured in a humidified atmosphere at 37 °C and 5% CO2, passaged twice a week, and the experiments were performed on cells between passage 5 and 15. The cell lines were routinely screened for the absence of mycoplasma infection (DAPI staining).
The effects of the synthesized compounds on cell viability were measured using the CellTiter-Glo® luminescent cell viability assay (Promega, Madison, WI, USA), according to the manufacturer’s instructions. Briefly, cells were seeded onto a flat-bottomed, white 96-well plate (BRANDplates, cat. no.: 781965)), with the following densities: PANC-1: 750 cells/well, Fadu: 2000 cells/well, primary fibroblasts: 2000 cells/well, HEK293T WT: 1000 cells/well, HEK293T CLPP^−/−: 2500 cells/well. After seeding, cells were incubated for a further 48 h before treatment. Cells were treated with the compounds for 72 h. Three concentrations (25.0 µM; 8.3 µM; 2.8 µM) were applied during the initial cell viability screening, while for the determination of dose–response curves, 1.5-fold serially diluted compound concentrations were applied (range: 26 µM–0.7 µM). After treatment, the luminescence signal was recorded using a microplate reader (BioTek Synergy 2 Multi-Mode Reader, BioTek, Winooski, VT, USA).
Data analysis was performed using GraphPad Prism 9.5.0 software (GraphPad Software, San Diego, CA, USA). […] The dose–response curves were generated by four-parameter nonlinear regression, and the IC50 values were determined as the means ± SEM of the best-fit values of 3 independent measurements. The R^2 values were consistently above 0.93, indicating a strong fit of the model to the experimental data (Supplementary S.89). […] Dunnett’s post hoc test was applied to adjust for multiple comparisons, minimizing the likelihood of false positive results. Assumptions for ANOVA, including normality (assessed via QQ plots) and homogeneity of variance (tested using the Brown–Forsythe test), were verified. The following significance levels were applied: * p < 0.05, ** p < 0.01, *** p < 0.001, **** p < 0.0001. […] The tumor selectivity of the compounds was quantitatively characterized by the selectivity index (SI). This parameter was calculated as the ratio of the average best-fit IC50 value for primary fibroblasts and the best-fit IC50 value for the corresponding tumor cells (PANC-1 or Fadu).

Take `CNCC#Cc1cccc(CN2C(=O)C3=C(CCN(Cc4ccc(-n5cc(-c6ccccc6)nn5)cc4)C3)N3CCN=C23)c1` [38b]: the “HEK293T CLPP-/- Cell viability (% of controll)” value was 116 % of controll and 114 % of controll and 119 % of controll (0.4 μM, dose–response, listed as CZT457, 0.4 µM); 112 % of controll (2×) and 110 % of controll (0.6 μM, dose–response, listed as CZT457, 0.6 µM); 112 % of controll and 111 % of controll and 115 % of controll (1.0 μM, dose–response, listed as CZT457, 1 µM); 107 % of controll and 101 % of controll and 103 % of controll (1.6 μM, dose–response, listed as CZT457, 1.6 µM); 25 % of controll and 33 % of controll and 32 % of controll and 13 % of controll (2.5 μM, dose–response, listed as CZT457, 2.5 µM); 1 % of controll and 0 % of controll (4.0 μM, dose–response, listed as CZT457, 4 µM). The “HEK293T CLPP-/- Cell viability (% of controll)” value runs as follows: (6.4 μM, dose–response) 0 % of controll; (16.25 μM, dose–response) 0 % of controll; (26 μM, dose–response) 0 % of controll. Besides, the IC50 (Homo sapiens, HEK-293T, read-out: IC50 (µM) HEK293T CLPP^−/−) amounted to 2.1 ± 0.03 µM. For the same compound, the “effect on the viability of HEK293T CLPP^−/− cells” value (dose–response, compared with HEK293T WT) is “maintained”.
